From PubChem BioAssay (NCI)
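Grown in 96-well plates, cells were treated for 48 hours with each compound at five concentrations. Insufficient inhibition: endpoint recorded as highest concentration tested. Definition used: TGI = concentration required for complete inhibition of growth.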

Columns and labels:
Assay in all cases: NCI tumour cell line growth inhibition, 48 h
[1] = test system: UACC-257 melanoma
[2] = test system: NCI-H522 lung
[3] = test system: DU-145 prostate
[4] = test system: T-47D breast
[5] = test system: HCT-15 colon
[6] = test system: HT29 colon
[7] = test system: SK-MEL-28 melanoma
[8] = test system: MDA-N
[9] = test system: SF-268 CNS
[10] = test system: ACHN renal
[11] = test system: U251 CNS
[12] = test system: OVCAR-5 ovarian
[13] = test system: KM12 colon
[14] = test system: CCRF-CEM leukemia
[15] = test system: MALME-3M melanoma
[16] = test system: UO-31 renal
[17] = test system: CAKI-1 renal
[18] = test system: TK-10 renal
[19] = test system: A498 renal
[20] = test system: MDA-MB-231 breast
[21] = test system: OVCAR-8 ovarian
[22] = test system: A549 NSCLC
[23] = test system: BT-549 breast
[24] = test system: SNB-75 CNS
[25] = test system: SN12C renal
[26] = test system: SNB-19 CNS
[27] = test system: HL-60(TB) leukemia
[28] = test system: MDA-MB-435
[29] = test system: SK-MEL-2 melanoma
[30] = test system: HS 578T breast
[31] = test system: SK-MEL-5 melanoma
[32] = test system: NCI-H23 lung
[33] = test system: NCI-H226 lung
[34] = test system: SF-295 CNS
[35] = test system: RXF 393 renal
[36] = test system: 786-0 renal
[37] = test system: HOP-62 NSCLC
[38] = test system: MCF7 breast
[39] = test system: SW-620 colon
[40] = test system: SK-OV-3 ovarian
[41] = test system: LOX IMVI melanoma
[42] = test system: UACC-62 melanoma
[43] = test system: COLO 205 colon
[44] = test system: HCT-116 colon
[45] = test system: IGROV1 ovarian
[46] = test system: SF-539 CNS
[47] = test system: MOLT-4 leukemia
[48] = test system: OVCAR-4 ovarian
[49] = test system: PC-3 prostate
[50] = test system: M14 melanoma
[51] = test system: NCI/ADR-RES ovarian
[52] = test system: EKVX NSCLC

Measured: TGI

CNc1cc(OCc2ccccc2)c(OC)cc1C(=O)N1CCC[C@H]1CO
> 100 µM: all assays above
